Reference: US20250140406A1, “CLASSIFYING TUMORS AND PREDICTING RESPONSIVENESS” (Oncocyte Corporation, priority 2022, published 2025)

Tests used:
[1] = system: cancer cell lines, DetermaIO classes; assay: Association of PRISM compound sensitivity with DetermaIO (DTIO) cell line classes; type: cell-based; conditions: association of compound sensitivity with DetermaIO classes; for DTIO Corr test: test data set; for DTIO Corr train: training data set
[2] = system: cancer cell lines classified IM, MSL, M; assay: PRISM screen compound sensitivity correlated with IM, MSL and M subtype of cell lines (101 gene signature); type: cell-based; conditions: 101 gene signature
[3] = subtype (IM, MSL or M) with which compound sensitivity is negatively correlated, training cell set (371 cell lines)
[4] = subtype (IM, MSL or M) assigned to the compound by negative correlation of PRISM sensitivity with subtype, training cell set (371 cell lines)
[5] = subtype (IM, MSL or M) with which PRISM compound sensitivity is negatively correlated, training cell set

COc1ccc(C2=N[C@@H](c3ccc(Cl)cc3)[C@@H](c3ccc(Cl)cc3)N2C(=O)N2CCNC(=O)C2)c(OC(C)C)c1 [A12230535]
DTIO Corr test [1]: 0.1503 | DTIO Corr train [1]: 0.1606

Cc1nccn1CC1CCc2c(c3ccccc3n2C)C1=O (centres unmarked) [A19736161]
DTIO Corr test [1]: −0.1124 | DTIO Corr train [1]: −0.07634

COC(=O)N[C@@H](C)CNc1nccc(-c2cn(C(C)C)nc2-c2cc(Cl)cc(NS(C)(=O)=O)c2F)n1 [A56085258]
DTIO Corr test [1]: 0.1442 | DTIO Corr train [1]: 0.09535

Cc1ccc(NC(=O)c2ccc(CN3CC[C@H](N(C)C)C3)c(C(F)(F)F)c2)cc1Nc1nccc(-c2cncnc2)n1 [A75975749]
DTIO Corr test [1]: 0.1658 | DTIO Corr train [1]: 0.1191

O=C(c1cc(Cc2n[nH]c(=O)c3ccccc23)ccc1F)N1CCN(C(=O)C2CC2)CC1 [K02113016]
DTIO Corr test [1]: 0.06404 | DTIO Corr train [1]: 0.02661

Cc1cc(CN2CCN(c3c(Br)cnc4nc(-c5ccc(N6CCN(C)CC6)cc5)[nH]c34)CC2)no1 [K03289018]
DTIO Corr test [1]: −0.1396 | DTIO Corr train [1]: −0.02552

Cc1ccc(NC(=O)c2cccc(C(C)(C)C#N)c2)cc1Nc1ccc2ncn(C)c(=O)c2c1 [K05804044]
DTIO Corr test [1]: 0.3247 | DTIO Corr train [1]: 0.1908

CC(C)(C)c1nc(-c2cccc(NS(=O)(=O)c3c(F)cccc3F)c2F)c(-c2ccnc(N)n2)s1 [K09951645]
DTIO Corr test [1]: 0.1439 | DTIO Corr train [1]: 0.04313

Cc1cc(C2CCCCC2)n(O)c(=O)c1 [K13044802]
DTIO Corr test [1]: −0.06749 | DTIO Corr train [1]: −0.1574

O=Nc1ccc(O)c2ncccc12 [K13169950]
DTIO Corr test [1]: −0.00012 | DTIO Corr train [1]: 0.09356

N=C(N)c1ccc(OCCCCCOc2ccc(C(=N)N)cc2)cc1 [K13183738]
DTIO Corr test [1]: 0.14 | DTIO Corr train [1]: 0.2157

Cc1occc(=O)c1[O-].Cc1occc(=O)c1[O-].[O]=[V+2] [K16180792]
DTIO Corr test [1]: 0.09031 | DTIO Corr train [1]: 0.1485

Nc1ccc(S(N)(=O)=O)cc1 [sulfanilamide]
TNBCType train [2, 3]: MSL

CC(=O)N1N=C(c2ccc(N)cc2)c2cc3c(cc2C[C@H]1C)OCO3 [talampanel]
TNBCType train [2, 4]: MSL

COc1ccc2[nH]c([S+]([O-])Cc3ncc(C)c(OC)c3C)nc2n1 (centres unmarked) [tenatoprazole]
TNBCType train [2, 3]: MSL

CN(C)C(=S)SC(=S)N(C)C [tetramethylthiuram-monosulfide]
TNBCType train [2, 5]: MSL

O=C(Cn1c(=O)sc2ccc(Cl)cc21)N1CCN(CCO)CC1 [tiaramide]
TNBCType train [2, 5]: MSL

CCCSc1nc(N[C@@H]2C[C@H]2c2ccc(F)c(F)c2)c2nnn([C@@H]3C[C@H](OCCO)[C@@H](O)[C@H]3O)c2n1 [ticagrelor]
TNBCType train [2, 5]: MSL

N#Cc1cc(-c2n[nH]c(-c3ccncc3)n2)ccn1 [topiroxostat]
TNBCType train [2, 4]: MSL

C[C@]12CC[C@H]3[C@@H](CC[C@@]45O[C@@H]4C(O)=C(C#N)C[C@]35C)[C@@H]1CC[C@@H]2O [trilostane]
TNBCType train [2, 3]: MSL

COc1cc2c3cc1Oc1cc(ccc1O)C[C@@H]1c4c(cc(OC)c(O)c4Oc4ccc(cc4)C[C@@H]3N(C)CC2)CC[N+]1(C)C [tubocurarine]
TNBCType train ([2]; subtype (IM, MSL or M) the PRISM compound sensitivity is associated with, training cell set (371 cell lines)): MSL

CC(C)(C)c1ccc(S(=O)(=O)Nc2ccc(Cl)cc2C(=O)c2cc[n+]([O-])cc2)cc1 [vercirnon]
TNBCType train [2, 5]: MSL

COc1ccc(N(C)c2nc(C)nc3ccccc23)cc1 [verubulin]
TNBCType train [2, 5]: MSL

CC[C@]1(O)C[C@@H]2CN(CCc3c([nH]c4ccccc34)[C@@](C(=O)OC)(c3cc4c(cc3OC)N(C)[C@H]3[C@@](O)(C(=O)OC)[C@H](OC(C)=O)[C@]5(CC)C=CCN6CC[C@]43[C@@H]65)C2)C1 [vinblastine]
TNBCType train [2, 3]: MSL

CC[C@]1(O)C[C@@H]2CN(CCc3c([nH]c4ccccc34)[C@@](C(=O)OC)(c3cc4c(cc3OC)N(C)[C@H]3[C@@](O)(C(N)=O)[C@H](O)[C@]5(CC)C=CCN6CC[C@]43[C@@H]65)C2)C1 [vindesine]
TNBCType train [2, 4]: MSL

CC(c1cc2ccccc2s1)N(O)C(N)=O (centres unmarked) [zileuton]
TNBCType train [2, 3]: MSL
